Test system: polymorphonuclear cells (PMNs)
Assay: Production of the superoxide anion by the polymorphonuclear cells (PMNs), reduction of ferricytochrome C
Type: cell-based
Details: 0.032 mM; phorbol myristate acetate; no conclusion possible on superoxide inhibition
Procedure: 10. Production of the superoxide anion (O°^2) by the polymorphonuclear cells (PMNs).
This is measured with a double beam spectrophotometer which allows the reduction of ferricytochrome C by O°2 tc be monitored. The incubation medium (2.5 ml) is constituted by PBS buffer containing glucose (7.5 mM), ferricytochrome C (0.956 mM), CaCl2 (2.3 mM), MgCl2 (1.1 mM), 7.5.10^6 of cells and the substance to be tested at a concentration of 0.032 mM. The reaction is triggered by adding phorbol myristate acetate at a final concentration of 0.012 mM and the reduction of the cytochrome C is monitored at 550 nm for 10 minutes. The reference cell contains the same material as that described above with an additional 48 μg of superoxide dismutase (SOD)/ml of medium.

Compound	Reduction of ferricytochrome C by PMNs
Oc1cc(O)c2c(c1)O[C@H](c1cc(O)c(O)c(O)c1)[C@@H](O)[C@@H]2c1c(O)cc(O)c2c1O[C@H](c1cc(O)c(O)c(O)c1)[C@@H](O)C2 [Substance Ib, GC-(4 alpha→8) GC]	strongly reduced
Oc1cc(O)c2c(c1)O[C@H](c1cc(O)c(O)c(O)c1)[C@@H](O)[C@@H]2c1c(O)cc(O)c2c1O[C@H](c1cc(O)c(O)c(O)c1)[C@H](O)C2 [Substance Ia, GC-(4 alpha→8) EGC]	strongly reduced

From patent publication US5670538A, “Use of prodelphinidins for obtaining medicaments intended for the treatment of arthrosis” (Laboratoires Dolisos, priority 1992, dated 1997)
